Assay results taken from US20230405081A1, “PHARMACEUTICAL COMPOSITION COMPRISING A PEPTIDE AS ACTIVE INGREDIENT” (INTRACT PHARMA LIMITED, priority 2020, published 2023).

Assay: in vitro
Conditions: human, real gastrointestinal fluid or homogenate; for remaining at 1 h, 1 mg/ml: pH 7, % Peptide remaining at 1 hours (T = 1 h)
Procedure: A human colonic model based on a mixed faecal inoculum was used to mimic the luminal environment of the human large intestine. An anaerobic workstation (Electrotek 500TG™ workstation, Electrotek, West Yorkshire, UK) maintained at 37° C. and 70% relative air humidity was used to set up the model. The fecal material was transferred in the anaerobic workstation and diluted with freshly prepared basal medium to obtain 20% w/w slurry by homogenization. The basal media provides nutrients and growth factors to the microbiota allowing viability for up to 24 hours. The homogenized bacterial media was sieved through an open mesh fabric (SefarNitex™, pore size 350 μm) to remove any nonhomogeneous fibrous material. The pH was maintained at approximately 7 to mimic the colonic luminal pH of the human.
Desmopressin stock solution was prepared in HPLC water at 2 mg/ml without or with single L-amino acids, combinations of L-amino acids or di-peptides at 10 and/or 20 and/or 40 mM concentrations and added to […] human faecal slurry; […] Samples were withdrawn at appropriate time points and added to HPLC grade methanol in a ratio of 1:1. The samples were centrifuged at […] for 10 minutes at 4° C. and the supernatant was analysed by Reversed Phase-HPLC (RP-HPLC).
Sample analysis was performed using a high performance liquid chromatography (HPLC) system (Agilent Technologies, 1260 Infinity II Series™) equipped with a pump (model G7111A), autosampler (model G7129A) and a diode-array UV detector (model G7114A). A 150×4.6-mm, 5 μm, 100 Å (Phenomenex, UK) reversed phase chromatography column was used for sample separation using 0.1% TFA in water (A) and acetonitrile (B) as the mobile phase for elution, at a flow rate of 1 ml/min. The gradient was set up with 17% of B at 0-4 minutes, 30% of B at 20 minutes and 17% of B at 20.01-23 minutes. The analysis was operated at room temperature and UV detection wavelength was set at 220 nm. Each sample was run for 23 minutes to allow complete elution of the sample without overlapping matrix interferences.
Colon stability was assessed using the Human Colon model with the amount of intact desmopressin remaining at each time point assessed by RP-HPLC as described in the Methods section.
Colon stability was assessed using the Human Colon model with the amount of intact oxytocin, oxytocin with 1 D-amino acid and linear oxytocin remaining at each time point assessed by RP-HPLC as described in the Methods section.

Row | % Desmopressin remaining after 1 hours (T = 1 h) (1 h, 0.1 mg/ml, pH 7) [%] | remaining at 1 h, 0.1 mg/ml (pH 7, % Desmopressin remaining after 1 hours (T = 1 h)) [%] | remaining at 0.5 h, 1 mg/ml (pH 7, % Peptide remaining at 0.5 hours (T = 0.5 h)) [%] | remaining at 1 h, 1 mg/ml [%] | Structure (SMILES)
1 | 22.6 ± 2.7 | 28.8 ± 1.2 | – | – | NC(=O)CC[C@@H]1NC(=O)[C@H](Cc2ccccc2)NC(=O)[C@H](Cc2ccc(O)cc2)NC(=O)CCSSC[C@@H](C(=O)N2CCC[C@H]2C(=O)N[C@H](CCCN=C(N)N)C(=O)NCC(N)=O)NC(=O)[C@H](CC(N)=O)NC1=O [Desmopressin]
2 | – | – | 0 | 0 | CC[C@H](C)[C@H](NC(=O)[C@H](Cc1ccc(O)cc1)NC(=O)[C@@H](N)CS)C(=O)N[C@@H](CCC(N)=O)C(=O)N[C@@H](CC(N)=O)C(=O)N[C@@H](CS)C(=O)N1CCC[C@H]1C(=O)N[C@H](CC(C)C)C(=O)NCC(N)=O [Linear Oxytocin with 1 D-amino acid]
3 | – | – | – | 6.6 ± 0.25 | CC[C@H](C)[C@@H]1NC(=O)[C@H](Cc2ccc(O)cc2)NC(=O)[C@@H](N)CSSC[C@@H](C(=O)N2CCC[C@H]2C(=O)N[C@@H](CC(C)C)C(=O)NCC(N)=O)NC(=O)[C@H](CC(N)=O)NC(=O)[C@H](CCC(N)=O)NC1=O [Oxytocin]
